The test system of this assay is Neutrophil elastase activity in U937 cells. Briefly: Determination of neutrophil elastase activity in U937 cytosolic lysate preparation after incubation with test compound. In kind it is cell-based. The settings on record: Homo sapiens, U-937, read-out: Reduction of NE-activity in U937 cells IC50. The protocol: Determination of Neutrophil Elastase Activity in U937 Cytosolic Lysate Preparation after Incubation with Test Compound
Optiplate 384F were purchased from PerkinElmer (Prod. No. #6007270). 24 well Nunclon cell culture plates (No. 142475) and 96 well plates (No. 267245) were from Nunc. Dimethylsulfoxid (DMSO) was from Sigma (Prod. No. D8418). Nonidet-P40 (NP40) was from USBiological (Prod. No. N3500)
Substrate, specific for Neutrophil elastase, was from Bachem (MeOSuc-Ala-Ala-Pro-Val-AMC; Prod. No. 1-1270).
Human neutrophil elastase was from Calbiochem (Prod. No. 324681)
Tris-buffer (100 mM Tris; 1M NaCL; pH 7.5)
Tris-buffer+HSA 0.1%; Human Serum Albumin from Calbiochem (Cat#. 126658)
Serine-protease buffer (20 mM Tris; 100 mM NaCL; pH 7.5)+0.1% HSA
Serine protease lysis buffer: 20 mM Tris-HCL; 100 mM NaCl pH 7.5; +0.2% Nonidet-P40;
PBS: phosphate buffered saline, without Ca and Mg, from Gibco
U937 from ECACC (Cat. No. 85011440) cultured in suspension at 37° C. and 5% CO2.
Cell density: 0.2-1 Mio. Cells/ml.
Medium: RPMI1640 GlutaMAX (No. 61870) with 10% FCS from Gibco
Cell Seeding and Treatment:
Compounds in 100% DMSO were diluted in Medium (—FCS) with 10% DMSO and further diluted according to the experiment planned.
20 μl of the compound solution was transferred in the respective wells of the 24 well plate and diluted with 2 ml cell suspension/well containing […] (final concentration of DMSO=0.1%). Compound dilution factor=100
Compounds (up to 7 concentrations) were tested in triplicates with 3 wells for the DMSO 0.1% control, incubated for 48 hours without medium change at 37° C., 5% CO2 and 95% relative humidity.
Cell Harvesting and Cell Lysate:
Transfer the cell suspension in 2.2 ml Eppendorf cups. Separate cells from medium by centrifugation (400×g; 5 min; RT); discard the supernatant. Resuspend in 1 ml PBS; centrifugation (400×g; 5 min; RT); wash cells twice with PBS. Add 100 μl Serin lysis buffer (ice cold) to the cell pellet; resuspend the pellet and store on ice for 15 minutes. Remove debris by centrifugation at 15000×g for 10 min at 4° C. Transfer 80-100 μl lysate supernatant in 96 well plate and store immediately at −80° C.
Neutrophil Elastase Activity Assay:
Frozen lysates were thawn at 37° C. for 10 minutes and stored on ice. Protein content was determined with Bradford protein assay. Lysates were diluted to 0.2-0.5 mg/ml protein in serine protease buffer+HSA.
Standard: NE (100 μg/ml stock solution in Tris-buffer; stored at −80° C.) was diluted in Tris-buffer+HSA to 750 ng/ml, and further serially diluted 1:2 for the standard curve.
Buffer, blank, standard and lysate samples were transferred into 384 well plate
Blank: 5 μl Tris-buffer+10 μl Tris-buffer+HSA+5 μl Substrate
Standard: 5 μl Tris-buffer+10 μl NE (diff. conc.)+5 μl Substrate
Lysate: 5 μl Tris-buffer+10 μl Lysat+[…] Substrate
The increase in fluorescence (Ex360 nm/Em 460 nm) is determined over 30 minutes with a Molecular Device Spectramax M5 Fluorescence Reader. Kinetic Reduction (Vmax units/sec); 4 vmax points. The amount of neutrophil elastase (ng/ml) is calculated using the standard curve and the Spectramax software. The result is interpolated to ng/mg lysate protein using excel formula functions. […] IC50 is calculated using Graphpad Prism; nonlinear fitting (log(inhibitor) vs. response—Variable slope).

The record followed here is patent US10238633B2, “Methods for treating pulmonary emphysema using substituted 2-Aza-bicyclo[2.2.1]heptane-3-carboxylic acid (benzyl-cyano-methyl)-amides inhibitors of Cathepsin C” (Boehringer Ingelheim International GmbH, priority 2013, dated 2019).

The IC50 is the midpoint of a concentration-inhibition curve.

The structures appear in SMILES notation.

For the compound `CN1Cc2ccc(-c3ccc(C[C@@H](C#N)NC(=O)[C@H]4N[C@@H]5CC[C@H]4C5)c(F)c3)cc2C1` [Example 1, (1S,2S,4R)—N-[(1S)-1-cyano-2-[2-fluoro-4-(2-methylisoindolin-5-yl)phenyl]ethyl]-3-azabicyclo[2.2.1]heptane-2-carboxamide], the IC50 is 2.3 nM.
For `CN1C(=O)Cc2ccc(-c3ccc(C[C@@H](C#N)NC(=O)[C@H]4N[C@@H]5CC[C@H]4C5)c(F)c3)cc21` [Example 2, (1S,2S,4R)—N-[(1S)-1-cyano-2-[2-fluoro-4-(1-methyl-2-oxo-indolin-6-yl)phenyl]ethyl]-3-azabicyclo[2.2.1]heptane-2-carboxamide], the IC50 came to 6.2 nM.
The result for `N#C[C@H](Cc1ccc(-c2ccc3c(c2)COC3=O)cc1F)NC(=O)[C@H]1N[C@@H]2CC[C@H]1C2` [Example 3, (1S,2S,4R)—N-[(1S)-1-cyano-2-[2-fluoro-4-(1-oxo-3H-isobenzofuran-5-yl)phenyl]ethyl]-3-azabicyclo[2.2.1]heptane-2-carboxamide] reads 2.9 nM.
The figure for `CS(=O)(=O)c1cccc(-c2ccc(C[C@@H](C#N)NC(=O)[C@H]3N[C@@H]4CC[C@H]3C4)c(F)c2)c1` [Example 4, (1S,2S,4R)—N-[(1S)-1-cyano-2-[2-fluoro-4-(3-methylsulfonylphenyl)phenyl]ethyl]-3-azabicyclo[2.2.1]heptane-2-carboxamide] is 6.4 nM.
The figure for `CN1CCN(c2ccc(C[C@@H](C#N)NC(=O)[C@H]3N[C@@H]4CC[C@H]3C4)c(F)c2)CC1` [Example 6, (1S,2S,4R)—N-[(1S)-1-cyano-2-[2-fluoro-4-(4-methylpiperazin-1-yl)phenyl]ethyl]-3-azabicyclo[2.2.1]heptane-2-carboxamide] is 2.4 nM.
For the compound `N#CC(Cc1ccc(-c2ccc3c(c2)COC3=O)cc1F)NC(=O)[C@H]1N[C@@H]2CC[C@H]1C2` (stereo partly shown) [Example 11], the IC50 was determined as 8.7 nM.
Take `CS(=O)(=O)c1ccc(-c2ccc(C[C@@H](C#N)NC(=O)[C@H]3N[C@@H]4CC[C@H]3C4)c(F)c2)cc1` [Example 16]: the IC50 amounted to 14.5 nM.
Take `N#C[C@H](Cc1ccc(-c2ccc3c(c2)NC(=O)C3)cc1F)NC(=O)[C@H]1N[C@@H]2CC[C@H]1C2` [Example 29]: the IC50 came out at 8.8 nM.
The result for `CN1CCc2cc(-c3ccc(C[C@@H](C#N)NC(=O)[C@H]4N[C@@H]5CC[C@H]4C5)c(F)c3)ccc2C1=O` [Example 42] reads 8.3 nM; that for `N#C[C@H](Cc1ccc(N2CCN3CCOCC3C2)cc1F)NC(=O)[C@H]1N[C@@H]2CC[C@H]1C2` (stereo partly shown) [Example 43], 9.2 nM.
The result for `N#C[C@H](Cc1ccc(N2CCN(CC3CCCO3)CC2)cc1F)NC(=O)[C@H]1N[C@@H]2CC[C@H]1C2` (stereo partly shown) [Example 154] reads 4.6 nM; that for `CN1CCN(S(=O)(=O)c2ccc(-c3ccc(C[C@@H](C#N)NC(=O)[C@H]4N[C@@H]5CC[C@H]4C5)c(F)c3)cc2)CC1` [Example 155], 0.5 nM; that for `CC1(C)OC(=O)c2ccc(-c3ccc(C[C@@H](C#N)NC(=O)[C@H]4N[C@@H]5CC[C@H]4C5)c(F)c3)cc21` [Example 156], 2.3 nM.
The result for `COCCN1C(=O)Cc2ccc(-c3ccc(C[C@@H](C#N)NC(=O)[C@H]4N[C@@H]5CC[C@H]4C5)c(F)c3)cc21` [Example 158] reads 8.8 nM.
Take `CN1Cc2cc(-c3ccc(C[C@@H](C#N)NC(=O)[C@H]4N[C@@H]5CC[C@H]4C5)c(F)c3)ccc2S1(=O)=O` [Example 169]: the IC50 came out at 9.1 nM.
Turning to `N#C[C@H](Cc1ccc(-c2ccc(S(=O)(=O)N3CCCCC3)cc2)cc1F)NC(=O)[C@H]1N[C@@H]2CC[C@H]1C2` [Example 177], the IC50 amounted to 9.2 nM.
In the case of `COCCN1CCN(c2ccc(C[C@@H](C#N)NC(=O)[C@H]3N[C@@H]4CC[C@H]3C4)c(F)c2)CC1C` (stereo partly shown) [Example 178], the IC50 stood at 3.6 nM.
The figure for `COCCN1CCN(c2ccc(C[C@@H](C#N)NC(=O)[C@H]3N[C@@H]4CC[C@H]3C4)c(F)c2)CC1` [Example 182] is 8.1 nM.
The result for `CN1CCN(C(=O)c2ccc(-c3ccc(C[C@@H](C#N)NC(=O)[C@H]4N[C@@H]5CC[C@H]4C5)c(F)c3)cc2)CC1` [Example 185] reads 3.9 nM; that for `N#C[C@H](Cc1ccc(N2CCN(C3CC3)CC2)cc1F)NC(=O)[C@H]1N[C@@H]2CC[C@H]1C2` [Example 187], 7.3 nM; that for `C[C@H]1CN(C)CCN1c1ccc(C[C@@H](C#N)NC(=O)[C@H]2N[C@@H]3CC[C@H]2C3)c(F)c1` [Example 188], 4.4 nM.
In the case of `COCCN1C(C)CN(c2ccc(C[C@@H](C#N)NC(=O)[C@H]3N[C@@H]4CC[C@H]3C4)c(F)c2)CC1C` (stereo partly shown) [Example 191], the IC50 worked out at 3.3 nM.
`CC1CN(C)CCN1c1ccc(C[C@@H](C#N)NC(=O)[C@H]2N[C@@H]3CC[C@H]2C3)c(F)c1` (stereo partly shown) [Example 192]: the IC50 stood at 4.1 nM.
The result for `N#C[C@H](Cc1ccc(N2CCC(N3CCOCC3)CC2)cc1F)NC(=O)[C@H]1N[C@@H]2CC[C@H]1C2` [Example 193] reads 6.5 nM.
The result for `CC1CN(c2ccc(C[C@@H](C#N)NC(=O)[C@H]3N[C@@H]4CC[C@H]3C4)c(F)c2)C(C)CN1C` (stereo partly shown) [Example 196] reads 5.3 nM; that for `N#C[C@H](Cc1ccc(-c2ccc(S(=O)(=O)N3CCOCC3)cc2)cc1F)NC(=O)[C@H]1N[C@@H]2CC[C@H]1C2` [Example 217], 7.5 nM; that for `CN1CC=C(c2ccc(C[C@@H](C#N)NC(=O)[C@H]3N[C@@H]4CC[C@H]3C4)c(F)c2)CC1` [Example 223], 3 nM.
The result for `CN1CCN(S(=O)(=O)c2cccc(-c3ccc(C[C@@H](C#N)NC(=O)[C@H]4N[C@@H]5CC[C@H]4C5)c(F)c3)c2)CC1` [Example 224] reads 1 nM; that for `CN1CCN(C(=O)c2cc(-c3ccc(C[C@@H](C#N)NC(=O)[C@H]4N[C@@H]5CC[C@H]4C5)c(F)c3)cs2)CC1` [Example 225], 2.8 nM; that for `N#C[C@H](Cc1ccc(-c2csc(C(=O)N3CCn4nccc4C3)c2)cc1F)NC(=O)[C@H]1N[C@@H]2CC[C@H]1C2` [Example 226], 1.8 nM.
Regarding `CC(C)N1CCN(C(=O)c2cc(-c3ccc(C[C@@H](C#N)NC(=O)[C@H]4N[C@@H]5CC[C@H]4C5)c(F)c3)cs2)CC1` [Example 227], the IC50 was found to be 0.9 nM.
For the compound `COCCN1CCN(C(=O)c2cc(-c3ccc(C[C@@H](C#N)NC(=O)[C@H]4N[C@@H]5CC[C@H]4C5)c(F)c3)cs2)CC1` [Example 228], the IC50 was 4.6 nM.
As for `N#C[C@H](Cc1ccc(-c2csc(C(=O)N3CCN(C4CC4)CC3)c2)cc1F)NC(=O)[C@H]1N[C@@H]2CC[C@H]1C2` [Example 229], the IC50 was 2.9 nM.
Regarding `N#C[C@H](Cc1ccc(-c2csc(C(=O)N3CCN(CC(F)(F)F)CC3)c2)cc1F)NC(=O)[C@H]1N[C@@H]2CC[C@H]1C2` [Example 232], the IC50 stood at 5.2 nM.
The figure for `N#C[C@H](Cc1ccc(-c2csc(C(=O)N3CCN4CCOCC4C3)c2)cc1F)NC(=O)[C@H]1N[C@@H]2CC[C@H]1C2` (stereo partly shown) [Example 234] is 6.9 nM.
For the compound `N#C[C@H](Cc1ccc(-c2ccc(C(=O)N3CCn4nccc4C3)s2)cc1F)NC(=O)[C@H]1N[C@@H]2CC[C@H]1C2` [Example 237], the IC50 was 9.6 nM.
The result for `CN1CCN(C(=O)c2coc(-c3ccc(C[C@@H](C#N)NC(=O)[C@H]4N[C@@H]5CC[C@H]4C5)c(F)c3)c2)CC1` [Example 241] reads 5.3 nM.
